Source: patent US20060025390A1, “Treatment of hormone allergy and related symptoms and disorders” (priority 2004, published 2006)

Experiments:
[1] = tested on: patients experiencing hormone allergy symptoms; assay: Clinical responses of hormone allergy symptoms to intradermal dilute progesterone (or estrogen); assay type: in vivo, human; settings: for % of Patients who Respond: any relief of symptom; for % Improvement in Responding Patients: average of patients' estimates
From the text: Patients experiencing several hormone allergy symptoms experienced relief when administered dilute doses of progesterone either sublingually or intradermally.
The symptoms measured were irritation or pain in the neck, nose, eyes, throat, ear, skin, back, hips, upper extremities and lower extremities, headache, and shortness of breath. […]
Patients were designated as responding patients in Table 1 if they experienced any relief of the indicated symptom. Patients were also asked to estimate the amount of improvement in the symptom, an average of which is
In Table 2 the probability that positive results (i.e. patients responding to treatment) were due to random effects was calculated using standard statistical analysis of patient tests. It was assumed that if the treatment has no effect, there is a 50% chance that a patient will indicate a positive response and a 50% chance that a patient will indicate a negative response. From this assumption, coupled with the actual data, one may calculate the probability that positive responses are due to an actual effect of the treatment and not simply random effects. In general, results with a less than 1% chance of being random are considered highly significant. Results with a less than 5% chance of being random are normally conclusively labeled as nonrandom. Thus, the results observed for most of the symptoms in Table 2 are highly significant, with only the results for ear irritation and pain falling merely in the nonrandom category.
Hormone samples may be prepared in any way suitable for the intended administration route. For administration through intradermal injection, samples may be prepared as they were in the studies of Examples 2 and 3. Specifically, the progesterone was formulated from commercially available injectable progesterone. Each ml of the final formulation contained […] of progesterone and 10% benzyl alcohol as a preservative in sesame oil. 0.1 ml was administered per patient intradermally. Estrogen samples were similarly prepared.

[2] = tested on: serum IgG anti-17-α-hydroxyprogesterone antibodies; assay: ELISA binding of IgG 17-α-hydroxyprogesterone antibodies to different hormones in solid phase; parameters: species or system human; settings: for IgG binding (optical density): hormone in solid phase, 405 nm; for IgG % reaction: relative to 17-α-hydroxyprogesterone = 100
Method: (§1) The ELISA inhibition method was used to determine specificity and cross-reactivity between different hormones and to ensure the degree of human IgG, IgM and IgE estrogen or progesterone binding to estrogen or progesterone in solid phase. […] 100 μl of sera from three different patients with high IgG, IgM or IgE antibodies against 17-α-hydroxyprogesterone was added to all wells. After shaking and incubation for 1 hr at room temperature, addition of enzyme labeled anti-human IgG, IgM or IgE, repeat of incubation, washing, and addition of substrate, color development was measured at 405 nm. Results were calculated as percentage of anti-17-α-hydroxyprogesterone binding to 17-α-hydroxyprogesterone and other hormones. Also, anti-estrogen binding to estrogen and other hormones in solid phase by progesterone in liquid phase was performed and calculated in a similar manner.
(§2) Human sera containing 17-α-hydroxyprogesterone IgG-, IgM- and IgE-binding antibodies were reacted against progesterone, estrogen, hydrocortisone and cholesterol. In comparison to 100% binding of anti-17-α-hydroxyprogesterone-binding to 17-α-hydroxyprogesterone, the IgG anti-17-α-hydroxyprogesterone-binding to progesterone, estrogen, hydrocortisone and cholesterol was 69-77%, 25-30%, 39-53%, and less than 10% respectively (Table 4). The % binding of serum IgM and IgE anti-17-α-hydroxyprogesterone to 17-1-hydroxyprogesterone, progesterone, estrogen, hydrocortisone and cholesterol was similar to the binding of IgG. This binding of anti-17-α-hydroxyprogesterone to progesterone was the highest, followed by hydrocortisone, then estrogen, to almost no binding with cholesterol. Similar to this, human sera with IgG, IgM and IgE binding antibodies against estrogen were reacted with progesterone, 17-α-hydroxyprogesterone, hydrocortisone and cholesterol, in the presence of estrogen.

[3] = tested on: serum IgM anti-17-α-hydroxyprogesterone antibodies; assay: ELISA binding of IgM 17-α-hydroxyprogesterone antibodies to different hormones in solid phase; parameters: species or system human; settings: for IgM binding (optical density): hormone in solid phase, 405 nm; for IgM % reaction: relative to 17-α-hydroxyprogesterone = 100
Method: as §1, §2

[4] = tested on: serum IgE anti-17-α-hydroxyprogesterone antibodies; assay: ELISA binding of IgE 17-α-hydroxyprogesterone antibodies to different hormones in solid phase; parameters: species or system human; settings: for IgE binding (optical density): hormone in solid phase, 405 nm; for IgE % reaction: relative to 17-α-hydroxyprogesterone = 100
Method: as §1, §2

[5] = tested on: serum IgE anti-estrogen antibodies; assay: ELISA binding of IgE estrogen antibodies to different hormones in solid phase; parameters: species or system human; settings: for IgE binding (optical density): hormone in solid phase, 405 nm; for IgE % reaction: relative to estrogen = 100
Method: as §1, §2

[6] = Back, of 58 patients with symptom (Table 2)
[7] = Ear, of 35 patients with symptom (Table 2)
[8] = Eyes, of 94 patients with symptom (Table 2)
[9] = Headache, of 105 patients with symptom (Table 2)
[10] = Hips, of 26 patients with symptom (Table 2)
[11] = Lower Extremity, 0.5 mg intradermally
[12] = Lower Extremity, of 51 patients with symptom (Table 2)
[13] = Neck, of 146 patients with symptom (Table 2)
[14] = Nose, of 112 patients with symptom (Table 2)
[15] = Shortness of Breath, 0.5 mg intradermally
[16] = Shortness of Breath, of 144 patients with symptom (Table 2)
[17] = Skin, of 35 patients with symptom (Table 2)
[18] = Throat, of 94 patients with symptom (Table 2)
[19] = Upper Extremity, 0.5 mg intradermally
[20] = Upper Extremity, of 63 patients with symptom (Table 2)

CC(=O)[C@H]1CC[C@H]2[C@@H]3CCC4=CC(=O)CC[C@]4(C)[C@H]3CC[C@]12C [Progesterone, progesterone]
% of Patients who Respond ([1]; Back, 0.5 mg intradermally): 82%
% Improvement in Responding Patients ([1]; Back, 0.5 mg intradermally): 72%
# of Responding Patients ([1]; Back, 0.5 mg intradermally, of 57 patients (Table 1)): 47
# of Responding Patients [1, 6]: 48
# of non-Responding Patients [1, 6]: 10
% of Patients who Respond ([1]; Ear, 0.5 mg intradermally): 66%
% Improvement in Responding Patients ([1]; Ear, 0.5 mg intradermally): 25%
# of Responding Patients ([1]; Ear, 0.5 mg intradermally, of 35 patients (Table 1)): 23
# of Responding Patients [1, 7]: 23
# of non-Responding Patients [1, 7]: 12
% of Patients who Respond ([1]; Eyes, 0.5 mg intradermally): 81%
% Improvement in Responding Patients ([1]; Eyes, 0.5 mg intradermally): 57%
# of Responding Patients ([1]; Eyes, 0.5 mg intradermally, of 90 patients (Table 1)): 73
# of Responding Patients [1, 8]: 75
# of non-Responding Patients [1, 8]: 19
% of Patients who Respond ([1]; Headache, 0.5 mg intradermally): 82%
% Improvement in Responding Patients ([1]; Headache, 0.5 mg intradermally): 69%
# of Responding Patients ([1]; Headache, 0.5 mg intradermally, of 103 patients (Table 1)): 84
# of Responding Patients [1, 9]: 85
# of non-Responding Patients [1, 9]: 20
% of Patients who Respond ([1]; Hips, 0.5 mg intradermally): 92%
% Improvement in Responding Patients ([1]; Hips, 0.5 mg intradermally): 79%
# of Responding Patients ([1]; Hips, 0.5 mg intradermally, of 26 patients (Table 1)): 24
# of Responding Patients [1, 10]: 24
# of non-Responding Patients [1, 10]: 2
% of Patients who Respond [1, 11]: 79%
% Improvement in Responding Patients [1, 11]: 76%
# of Responding Patients ([1]; Lower Extremity, 0.5 mg intradermally, of 61 patients (Table 1)): 48
# of Responding Patients [1, 12]: 43
# of non-Responding Patients [1, 12]: 8
% of Patients who Respond ([1]; Neck, 0.5 mg intradermally): 72%
% Improvement in Responding Patients ([1]; Neck, 0.5 mg intradermally): 62%
# of Responding Patients ([1]; Neck, 0.5 mg intradermally, of 144 patients (Table 1)): 104
# of Responding Patients [1, 13]: 106
# of non-Responding Patients [1, 13]: 40
% of Patients who Respond ([1]; Nose, 0.5 mg intradermally): 82%
% Improvement in Responding Patients ([1]; Nose, 0.5 mg intradermally): 63%
# of Responding Patients ([1]; Nose, 0.5 mg intradermally, of 109 patients (Table 1)): 89
# of Responding Patients [1, 14]: 92
# of non-Responding Patients [1, 14]: 20
% of Patients who Respond [1, 15]: 87%
% Improvement in Responding Patients [1, 15]: 67%
# of Responding Patients ([1]; Shortness of Breath, 0.5 mg intradermally, of 142 patients (Table 1)): 124
# of Responding Patients [1, 16]: 126
# of non-Responding Patients [1, 16]: 18
% of Patients who Respond ([1]; Skin, 0.5 mg intradermally): 79%
% Improvement in Responding Patients ([1]; Skin, 0.5 mg intradermally): 74%
# of Responding Patients ([1]; Skin, 0.5 mg intradermally, of 34 patients (Table 1)): 27
# of Responding Patients [1, 17]: 27
# of non-Responding Patients [1, 17]: 8
% of Patients who Respond ([1]; Throat, 0.5 mg intradermally): 76%
% Improvement in Responding Patients ([1]; Throat, 0.5 mg intradermally): 64%
# of Responding Patients ([1]; Throat, 0.5 mg intradermally, of 92 patients (Table 1)): 70
# of Responding Patients [1, 18]: 71
# of non-Responding Patients [1, 18]: 23
% of Patients who Respond [1, 19]: 80%
% Improvement in Responding Patients [1, 19]: 75%
# of Responding Patients ([1]; Upper Extremity, 0.5 mg intradermally, of 50 patients (Table 1)): 40
# of Responding Patients [1, 20]: 50
# of non-Responding Patients [1, 20]: 13
effectiveness in relieving hormone allergy symptoms compared to several other antigens ([1]; dilute doses sublingually or intradermally): most effective
IgG anti-17-α-hydroxyprogesterone binding ([2]; in comparison to 100% binding to 17-α-hydroxyprogesterone, over three sera): 69-77%
IgG binding (optical density) ([2]; sample 1): 1.1
IgG % reaction ([2]; sample 1): −69%
IgG binding (optical density) ([2]; sample 2): 0.73
IgG % reaction ([2]; sample 2): −77%
IgG binding (optical density) ([2]; sample 3): 0.49
IgG % reaction ([2]; sample 3): −72%
IgM binding (optical density) ([3]; sample 1): 0.8
IgM % reaction ([3]; sample 1): −61%
IgM binding (optical density) ([3]; sample 2): 0.79
IgM % reaction ([3]; sample 2): −77%
IgM binding (optical density) ([3]; sample 3): 0.72
IgM % reaction ([3]; sample 3): −78%
IgE binding (optical density) ([4]; sample 1): 0.94
IgE % reaction ([4]; sample 1): −65%
IgE binding (optical density) ([4]; sample 2): 1.7
IgE % reaction ([4]; sample 2): −71%
IgE binding (optical density) ([4]; sample 3): 0.82
IgE % reaction ([4]; sample 3): −77%
IgE binding (optical density) ([5]; sample 1): 0.21
IgE % reaction ([5]; sample 1): −26%
IgE binding (optical density) ([5]; sample 2): 0.53
IgE % reaction ([5]; sample 2): −35%
IgE binding (optical density) ([5]; sample 3): 0.62
IgE % reaction ([5]; sample 3): −39%
